Data: ChEMBL document CHEMBL1156829 (Proc Natl Acad Sci U S A, 2008)

Experiments:
Plasmodium falciparum [1] = assay: NOVARTIS: Inhibition of Plasmodium falciparum W2 (drug-resistant) proliferation in erythrocyte-based infection assay; type: functional, organism-based; conditions: Plasmodium falciparum, W2; read-out: EC50
Plasmodium falciparum [2] = assay: NOVARTIS: Inhibition of Plasmodium falciparum 3D7 (drug-susceptible) proliferation in erythrocyte-based infection assay; type: functional, organism-based; conditions: Plasmodium falciparum, 3D7
[3] = NOVARTIS: Cytotoxicity against human hepatocellular carcinoma cell line (Huh7); type: toxicity, cell-based, Huh-7; conditions: Huh7 cells (hepatocellular carcinoma cell line)

Structure (SMILES)	EC50 (Plasmodium falciparum [1])	EC50 (Plasmodium falciparum [2])	CC50 [3]
N=c1n(Cc2ccccc2)c2ccccc2n1CC(O)c1ccc(Cl)cc1 (configuration not stated)	50.6 nM	257 nM	11100 nM
CC(=NNC(N)=S)C(C)=NNC(N)=S	462 nM	572 nM	> 100000 nM
CCC(c1nc2ccccc2c(=O)n1-c1cccc(C)c1)N(Cc1ccccc1)C(=O)Nc1c(C(C)C)cccc1C(C)C (configuration not stated)	486 nM	395 nM	> 100000 nM
CCc1nc2nc(C)cc(NCCc3cccc(C)c3)n2n1	453 nM	334 nM	> 100000 nM
COc1ccc(-c2c(C(F)(F)F)nn(C)c2NC(=O)Nc2ccc(F)cc2F)cc1	356 nM	242 nM	78200 nM
Clc1ccc(-c2c[n+](Cc3ccccc3Cl)c3n2CCC3)cc1	384 nM	784 nM	> 87000 nM
CN(C)CCCn1c(N)c(-c2nc3ccccc3[nH]2)c2nc(C#N)c(C#N)nc21	274 nM	463 nM	60200 nM
COc1ccc(C2CC(=O)C3=C(C2)NC(C)=C(C(=O)OC(C)C)C3c2ccccc2F)cc1OC (configuration not stated)	33.2 nM	34.7 nM	7320 nM
CC(C)CCNCC(O)Cn1c2ccc(Cl)cc2c2cc(Cl)ccc21 (configuration not stated)	96.6 nM	192 nM	20600 nM
CCOc1ccc(-c2nonc2NC(=O)c2ccco2)cc1OCC	481 nM	590 nM	> 100000 nM
Cn1nc(C(F)(F)F)c(-c2ccc(Br)cc2)c1NC(=O)Nc1ccc(F)cc1F	206 nM	212 nM	42800 nM
CCOC(=O)c1[nH]c2ccc(C)cc2c1N=NN(C)C	115 nM	181 nM	26300 nM
CCCCCCCC[n+]1c(C)n(CC)c2ccc(Cl)cc21	239 nM	139 nM	54900 nM
O=C(CC(=O)N1CCOCC1)Nc1ccc2nc3n(c(=O)c2c1)CCCCC3	432 nM	> 10000 nM	> 100000 nM
N=c1ccn(CC(=O)N2CCCc3ccccc32)c2ccccc12	453 nM	1490 nM	> 100000 nM
NNC(=O)CNC(c1ccccc1)c1cc(Br)ccc1NC(=O)c1ccccc1Br (configuration not stated)	453 nM	342 nM	> 100000 nM
CC(C)NC(=O)c1ccc(OC2CCN(CC3CCCCC3)CC2)c(Cl)c1	298 nM	476 nM	65900 nM

Structure (SMILES)	EC50 (Plasmodium falciparum [1])	EC50 (Plasmodium falciparum [2])	CC50 [3]
O=C(NCCCCCCCCNC(=O)Nc1ccc(C2=NCCN2)cc1)Nc1ccc(C2=NCCN2)cc1	45.9 nM	85.4 nM	> 10000 nM
COc1cc(OC)cc(C(=O)NCc2n[nH]c(=S)n2-c2cccc(Cl)c2)c1	450 nM	565 nM	> 100000 nM
CCOC(=O)c1nnn(-c2nonc2N)c1-c1ccc(OC)c(OC)c1	450 nM	513 nM	> 100000 nM
Cc1nnc(SCC(=O)NCc2ccco2)n1-c1ccc(F)cc1	459 nM	> 8950 nM	> 100000 nM
Oc1ccc(-c2cnccn2)cc1CNC1CCN(Cc2ccccc2)CC1	380 nM	385 nM	82800 nM
COc1ccc(-c2nc(-c3ccncc3)cnc2N)cc1OC	45.7 nM	35.8 nM	> 10000 nM
CCCCCC(=O)Oc1ccccc1-c1nc2cc(C)ccn2c1NC(C)(C)CC(C)(C)C	44.8 nM	703 nM	> 10000 nM
CCC1CCCCN1S(=O)(=O)c1cc(Br)cc2c1N(C(=O)C1CC1)CC2 (configuration not stated)	448 nM	2840 nM	> 100000 nM
c1ccc2c(NCCc3c[nH]c4ccccc34)c3ccccc3nc2c1	31.6 nM	86 nM	7080 nM
O=C(NCc1cccs1)c1ccc(OC2CCN(CC3CCCCC3)CC2)c(Cl)c1	44.6 nM	719 nM	> 10000 nM
O=C(Nc1ccc(C23CC4CC(CC(c5ccccc5)(C4)C2)C3)cc1)c1cccs1	468 nM	645 nM	> 100000 nM
COc1cc(NC(C)CCCN(Cc2ccccc2OC)C(=O)c2ccc(Cl)c([N+](=O)[O-])c2)c2ncccc2c1 (configuration not stated)	< 18.2 nM	1200 nM	> 3910 nM
O=C(Nc1nc2ccccc2s1)c1ccc(S(=O)(=O)N2CCOCC2)cc1	> 46.1 nM	> 1250 nM	> 10000 nM
CC(=O)N(C1=C(N2CCCCC2)C(=O)c2ccccc2C1=O)c1cccc(F)c1	109 nM	146 nM	23700 nM
CCOC(=O)c1c(C)[nH]c(C)c1S(=O)(=O)N1CCCC(C(=O)N2CCN(c3cc(C)ccc3C)CC2)C1 (configuration not stated)	367 nM	231 nM	> 82300 nM
O=C1c2ccccc2C2=Nc3ccccc3SC(c3cccc(F)c3)C12 (configuration not stated)	135 nM	86.7 nM	30300 nM
Cc1ccc(-c2nn(-c3ccccc3)c3[nH]c(=O)c(CNCc4ccccc4)cc23)cc1	467 nM	1610 nM	> 100000 nM
